In paper PMC11876601 (Molecular Systems Biology, 2025):
Like-named read-outs stand apart in the source and are kept apart here.

What was measured:
Test in all cases: cells
MiaPaCa-2 [1] = test system: MiaPaCa-2; design: Viability of PDAC cell lines, ATPlite luminescence, 11-dose single-agent curve fit; details: Homo sapiens, MIA PaCa-2, 72 h, read-out: EC50 [nM]
Procedure: (§1) Afterward, small amounts were transferred to 384-well intermediate plates (Greiner Bio-One GmbH, Germany). […] For drug combination screening, 1000 to 5000 cells were seeded into 384-well plates (CulturPlate™, Perkin Elmer, MA, USA) using a Multidrop™ Combi Reagent Dispenser (Thermo Scientific, MA, USA) in 50 µl medium per well 24 h prior to drug treatment (seeding densities see Appendix Table S1). […] The final DMSO concentration in each well was 0.2%. […] Eight wells per plate without library drug served as negative controls, and sixteen wells per plate containing 5 µM Staurosporine served as positive controls. […] Next, we analyzed the drug sensitivity of immortalized duct cell line HPDE to detect effects unrelated to pancreatic cancer.

AsPC-1 = test system: AsPC-1; design: Viability of PDAC cell lines, ATPlite luminescence, 11-dose single-agent curve fit; details: Homo sapiens, ASPC1, 72 h, read-out: EC50 [nM]
Procedure: as §1

Colo-357 = test system: Colo-357; design: Viability of PDAC cell lines, ATPlite luminescence, 11-dose single-agent curve fit; details: Homo sapiens, COLO357, 72 h, read-out: EC50 [nM]
Procedure: as §1

HPDE = test system: HPDE; design: Viability of PDAC cell lines, ATPlite luminescence, 11-dose single-agent curve fit; details: HPDE, 72 h, read-out: EC50 [nM]
Procedure: as §1

HuP-T4 = test system: HuP-T4; design: Viability of PDAC cell lines, ATPlite luminescence, 11-dose single-agent curve fit; details: Homo sapiens, HuP-T4, 72 h, read-out: EC50 [nM]
Procedure: as §1

Suit2-07 [2] = test system: Suit2-07; design: Viability of PDAC cell lines, ATPlite luminescence, 11-dose single-agent curve fit; details: 72 h, read-out: EC50 [nM]
Procedure: as §1

BxPC-3 [3] = test system: BxPC-3; design: Viability of PDAC cell lines, ATPlite luminescence, 11-dose single-agent curve fit; details: Homo sapiens, BXPC-3, 72 h, read-out: EC50 [nM]
Procedure: as §1

PSN-1 [4] = test system: PSN-1; design: Viability of PDAC cell lines, ATPlite luminescence, 11-dose single-agent curve fit; details: Homo sapiens, PSN1, 72 h, read-out: EC50 [nM]
Procedure: as §1

FAMPAC [5] = test system: FAMPAC; design: Viability of PDAC cell lines, ATPlite luminescence, 11-dose single-agent curve fit; details: 72 h, read-out: EC50 [nM]
Procedure: as §1

PANC-1 = test system: PANC-1; design: Viability of PDAC cell lines, ATPlite luminescence, 11-dose single-agent curve fit; details: Homo sapiens, PANC-1, 72 h, read-out: EC50 [nM]
Procedure: as §1

Capan-1 = test system: Capan-1; design: Viability of PDAC cell lines, ATPlite luminescence, 11-dose single-agent curve fit; details: Homo sapiens, CAPAN-1, 72 h, read-out: EC50 [nM]
Procedure: as §1

PaTu-8988-T = test system: PaTu-8988-T; design: Viability of PDAC cell lines, ATPlite luminescence, 11-dose single-agent curve fit; details: Homo sapiens, PaTu 8988t, 72 h, read-out: EC50 [nM]
Procedure: as §1

Dan-G [6] = test system: Dan-G; design: ATPlite luminescence viability of PDAC cell lines, 11-dose single-agent curves, 4-parameter fit; details: 72 h, read-out: EC50 [nM]
Procedure: as §1

Dan-G [7] = test system: Dan-G; design: Viability of PDAC cell lines, ATPlite luminescence, 11-dose single-agent curve fit; details: 72 h, read-out: EC50 [nM]
Procedure: as §1

MiaPaCa-2 [8] = test system: MiaPaCa-2; design: ATPlite luminescence viability of PDAC cell lines, 11-dose single-agent curves, 4-parameter fit; details: Homo sapiens, MIA PaCa-2, 72 h, read-out: EC50 [nM]
Procedure: as §1

PSN-1 [9] = test system: PSN-1; design: ATPlite luminescence viability of PDAC cell lines, 11-dose single-agent curves, 4-parameter fit; details: Homo sapiens, PSN1, 72 h, read-out: EC50 [nM]
Procedure: as §1

FAMPAC [10] = test system: FAMPAC; design: ATPlite luminescence viability of PDAC cell lines, 11-dose single-agent curves, 4-parameter fit; details: 72 h, read-out: EC50 [nM]
Procedure: as §1

BxPC-3 [11] = test system: BxPC-3; design: ATPlite luminescence viability of PDAC cell lines, 11-dose single-agent curves, 4-parameter fit; details: Homo sapiens, BXPC-3, 72 h, read-out: EC50 [nM]
Procedure: as §1

Suit2-07 [12] = test system: Suit2-07; design: ATPlite luminescence viability of PDAC cell lines, 11-dose single-agent curves, 4-parameter fit; details: 72 h, read-out: EC50 [nM]
Procedure: as §1

EC50 (MiaPaCa-2 [1]) | EC50 (AsPC-1) | EC50 (Colo-357) | EC50 (BxPC-3 [3]) | EC50 (PANC-1) | EC50 (MiaPaCa-2 [8]) | EC50 (BxPC-3 [11]) | Compound | EC50 (HPDE) | EC50 (HuP-T4) | EC50 (Suit2-07 [2]) | EC50 (PSN-1 [4]) | EC50 (FAMPAC [5]) | EC50 (Capan-1) | EC50 (PaTu-8988-T) | EC50 (Dan-G [6]) | EC50 (Dan-G [7]) | EC50 (PSN-1 [9]) | EC50 (FAMPAC [10]) | EC50 (Suit2-07 [12])
2130 nM | > 10000 nM | 3070 nM | 2870 nM | 1590 nM |  |  | C[C@H](Nc1ncnc2nc[nH]c12)c1cc2cccc(Cl)c2c(=O)n1-c1ccccc1 [Duvelisib] | 6900 nM | 109 nM | > 10000 nM | 883 nM | 4250 nM | 4650 nM | > 10000 nM | 5640 nM |  |  |  | 
7100 nM | 156 nM | 8830 nM | 3.14 nM | > 10000 nM |  |  | Cc1cc2c(F)c(Oc3ncnn4cc(OC[C@@H](C)O)c(C)c34)ccc2[nH]1 [Brivanib] | > 10000 nM | 5470 nM | > 10000 nM | > 10000 nM |  | > 10000 nM | 9580 nM |  | > 10000 nM |  |  | 
71.8 nM |  | 220 nM | 99.3 nM | 80.3 nM |  |  | CCc1cc2c(cc1N1CCC(N3CCOCC3)CC1)C(C)(C)c1[nH]c3cc(C#N)ccc3c1C2=O [Alectinib] | 2130 nM | 680 nM | 2390 nM | 0.05 nM | 9090 nM |  | 28 nM |  | > 10000 nM |  |  | 
 | 305 nM | 3490 nM | 9420 nM | 43.9 nM | > 10000 nM |  | O=C(Nc1nc2cccc(-c3ccc(CN4CCS(=O)(=O)CC4)cc3)n2n1)C1CC1 [Filgotinib] | 1990 nM | 172 nM | 2150 nM |  |  | 5940 nM | > 10000 nM |  | 6150 nM | 7590 nM | 8160 nM | 
 | 3350 nM | 3820 nM |  | 142 nM | 4660 nM | > 10000 nM | CNC(=O)c1ccc(Nc2ncc(C(F)(F)F)c(NCc3nccnc3N(C)S(C)(=O)=O)n2)cc1 [Defactinib] | 3690 nM | 441 nM | > 10000 nM |  |  | 3400 nM | 9750 nM |  | 7590 nM | 4590 nM | > 10000 nM | 
 | 3480 nM | 2990 nM |  | 442 nM | > 10000 nM | 1370 nM | CCN1C(=O)N(c2c(F)c(OC)cc(OC)c2F)Cc2cnc3[nH]c(CN4CCOCC4)cc3c21 [Pemigatinib] | 3380 nM | 3.44 nM |  | 2710 nM |  | 2030 nM | 3280 nM |  | 2970 nM |  | 3320 nM | 3040 nM
> 10000 nM | 28.4 nM | 352 nM | 164 nM | 2580 nM |  |  | CN1CC[C@@H](NC(=O)Nc2ccc(C#N)cc2)C[C@@H]1c1nc2ccccc2[nH]1 [Glasdegib] | 110 nM | 208 nM | 523 nM | 846 nM | 1230 nM |  | 0.5 nM |  | 176 nM |  |  | 
1830 nM | 32.7 nM | 131 nM | 792 nM | 1420 nM |  |  | Cc1ccc(F)c(NC(=O)Nc2ccc(-c3cccc4[nH]nc(N)c34)cc2)c1 [Linifanib] | 311 nM | 1100 nM | 864 nM | > 10000 nM | 3290 nM | 47 nM |  |  | 27.9 nM |  |  | 
7220 nM | 4870 nM | 9560 nM | > 10000 nM | 2070 nM |  |  | [2H]C([2H])([2H])NC(=O)c1nnc(NC(=O)C2CC2)cc1Nc1cccc(-c2ncn(C)n2)c1OC [BMS986165] | 2330 nM | 4610 nM | > 10000 nM | 7570 nM | > 10000 nM |  | > 10000 nM |  | 3350 nM |  |  | 
4490 nM | 1070 nM | 31.5 nM | 2910 nM | > 10000 nM |  |  | C=CC(=O)N1CCC(CNc2ncnc(N)c2-c2ccc(Oc3ccccc3)cc2)CC1 [Evobrutinib] | 2.61 nM |  | 1.96 nM | 571 nM |  | > 10000 nM | 213 nM |  | 493 nM |  |  | 
